Data: patent US9561265B2, “KIF20A epitope peptides for TH1 cells and vaccines containing the same” (ONCOTHERAPY SCIENCE, INC., priority 2012, dated 2017)

Assays:
[1] = system: KIF20A-specific bulk CD4^+ Th cell line; assay: Cytokine assay (Bio-Plex) of KIF20A-specific bulk CD4+ Th cell lines; type: cell-based, human; settings: donor HDK1; peptide-pulsed PBMC (KIF20A (60-84)) or L-DR53 (KIF20A (809-833)); 20 h
Experimental: T cells (1×10^4/well) were cultured with autologous PBMC (3×10^4/well) in the presence of KIF20A (60-84) or L-DR53 (5×10^4) in the presence of KIF20A (809-833) in 96-well culture plate. After 20 h, culture supernatants were collected and cytokine (IFN-gamma, TNF-alpha, GM-CSF, MIP1beta, IL-2, IL-4 and IL-17) level was measured using the Bio-Plex system (Bio-Rad) according to manufacturers' instructions.

[2] = system: PBMCs from patients with HNMT; assay: KIF20A-LPs-specific CD4+ T-cell responses in patients with HNMT (IFN-gamma ELISPOT); type: cell-based, human; settings: for Number of specific IFN-gamma spots, patients vs healthy donors: 16 HNMT patients, 9 healthy donors
Excerpt: Blood samples were collected from 16 patients with a head and neck malignant tumor (HNMT). The immune responses of Th cells reactive to KIF20A-LPs were investigated. The patients were receiving immunotherapy with TAA-derived CTL-epitope peptides, and were enrolled in 2 peptide vaccine trials. These phase I/II clinical trials of cancer immunotherapy using 3 HLA-A24-binding short peptides (SPs), (clinical-grade 9-10-amino acid-long peptides) derived from 3 cancer-testis antigens, LY6K (LY6K-A24(177-186)), IMP-3 (IMP-3-A24(508-516)), and CDCA1 (CDCA1-A24(56-64)) were reviewed and approved by the Institutional Review Board of Kumamoto University, Japan (Kono K et al. J Transl Med 2012; 10:141., Suda T et al. Cancer Sci 2007; 10:1803-8., Harao M et al. Int J Cancer 2008; 123:2616-25.). […] All patients with HNMT were selected on the basis of HLA-A24 presence after providing written informed consent. The patients suffered from inoperable advanced HNMT with recurrent or metastatic tumors and were resistant to standard therapy; they were enrolled in the trial under University Hospital Medical Information Network Clinical Trials Registry (UMIN-CTR) number 000008379 (CTR-8379). The patients with radical resection were enrolled in the trial under UMIN-CTR number 000008380 (CTR-8380). In the latter trial, patients were treated with postoperative peptide vaccine combined with S-1, ifosfamide, or doxorubicin. These clinical trials and analyses are ongoing.
Fresh PBMCs from patients with HNMT or healthy donors were cultured with a mixture of KIF20A (60-84) LP and KIF20A (809-833) LP (10 micro g/mL each) in a final volume of 2 ml AIM-V supplemented with 5% human decomplemented plasma at 37 degrees C. (2×10^6 cells/well, 24-well plates); both rhIL-2 and rhIL-7 were added on day 0 and 2. After 1 week of cell culture, the PBMCs were collected, washed, and cultured in ELISPOT plates (1×10^5 cells/well) with KIF20A (60-84) LP, KIF20A (809-833) LP, or control LP for 18 h. The number of KIF20A-LP-specific Th cells expressed as spot-forming cells/10^5 cells was calculated after subtracting control values (background). Responses were scored as positive when the mean number of IFN-gamma spots was more than 15 and more than 2-fold over background. The ELISPOT assays on patients' cells were conducted in single, duplicate, or triplicate wells because of the limited number of available cells.

Row | Sequence | Cytokines produced by KIF20A-specific bulk Th line on restimulation with cognate peptide [1] | Number of specific IFN-gamma spots, patients vs healthy donors [2] | Specific responses during the course of immunotherapy ([2]; HNMT patients) | HLA restriction of LP-specific IFN-gamma production by T-cells ([2]; patients HNMT31 and HNMT43, blocking mAbs)
1 | CIAEQYHTVLKLQGQVSAKKRLGTN [KIF20A (809-833)] | produced a large amount of IFN-gamma, TNF-alpha, GM-CSF, MIP-1beta and IL-2, but less IL-4 and IL-17 | significantly larger than in healthy donors | augmented in some patients (HNMT31 and 42), or induced in HNMT43 | significantly inhibited by addition of anti-HLA-DR mAb but not by anti-HLA-class I mAb
2 | DSMEKVKVYLRVRPLLPSELERQED [KIF20A (60-84)] | produced a large amount of IFN-gamma, TNF-alpha, GM-CSF, MIP-1beta and IL-2, but less IL-4 and IL-17 | significantly larger than in healthy donors |  | 
